Assay results as given in patent publication US11884647B2, “Compounds and methods for targeting pathogenic blood vessels” (THE REGENTS OF THE UNIVERSITY OF CALIFORNIA, priority 2019, dated 2024).

Assays:
[1] = system: tumor endothelial cells (CT26.CL25 colon cancer tumor); experiment: Colon CT26 ex vivo model of tumor angiogenesis; assay type: cell-based; details: Mus musculus, CT26, 48 h, read-out: Cell death
Procedure: This example describes a procedure to prepare a primary tumor angiogenesis model for assessing the efficacy of anti-cancer candidate agents.
1. The day before the experiment, spray all necessary tools with 70% ethanol and sterilize them under UV light overnight, including blade, dissecting and micro-dissecting scissors and […]. Place 24-well dishes at 4° C. to pre-chill plates and thaw Matrigel 24 hours before tumor dissection.
2. Spray 70% ethanol on working bench. Prepare two sterile petri dishes with 10 mL sterile PBS. Steps 3 and 4 are for mouse tumor models. For fresh human tumor, directly go to step 5.
3. Euthanize the tumor-bearing mice. Spray 70% ethanol on the mouse and remove the tumor using sterilized dissecting tools (avoid the fur). Rinse the tumor in petri dish with sterile PBS to remove ethanol and fur. Transfer the tumor to a new petri dish with PBS for dissection. Place the dish on ice.
4. Using pre-chilled sterile pipet tips to seed regular Matrigel in 24 well plates on ice. Matrigel (30 μL) is dropped in the middle of each well without touching the edge of the well (avoid introducing bubbles if possible).
5. Cut the tumor in halves using the sterile blade. Identify and isolate healthy tumor tissue that is not necrotic and is within the tumor capsule. Cut the healthy tumor tissue into small pieces. For instance, a suitable size for the tumor tissue is 0.5 mm (H)×0.5 mm (L)×0.3 mm (D) with a total volume of 0.075 mm^3.
6. Gently transfer and embed each tumor piece in the Matrigel drop in the 24-well plate. Place the embedded piece in the bottom and middle of each Matrigel drop. Keep the plate on ice all the time.
7. After seeding the tumor pieces, plates are incubated in a 37° C. cell culture incubator without medium for 10 minutes in order for the Matrigel to solidify.
8. Endothelial Growth Medium (0.5 mL) is added to each well and incubated at 37° C. with 5% CO2. Wait until the new endothelial cells have grown out of the tumor or are larger than 3 mm in diameter until treatment. This usually takes 4 days for the LL2 Lewis lung cancer model and 7 days for the CT26 colon cancer model. For human tumor models, the growth time is typically 2-3 weeks, depending on the tumor type. Media is changed every 4 days during prolonged culture. Typically, when the tumor tissue grows to 2 mm in diameter, it is good for drug testing. A size of about 3 mm in diameter can make visualization easier.
9. When the assay is ready to be analyzed for cell death (e.g., 48 hours after drug addition), prepare the dye mixture by mixing 6 μL of green dye to stain live cells (5 mg/mL Fluorescein diacetate or FDA in DMSO) with 30 μL of red dye (2.5 mg/mL Propidium iodide or PI in PBS) to stain dead cells in an Eppendorf tube. The FDA dye needs to be stored frozen in a −20° C. freezer because it has a labile ester bond.
10. Add 1 μL of the dye mixture to each well of the 24-well dish. It is usually performed one 24-well dish at a time given the amount of time needed to take pictures (the green dye is not as stable in the cells in the long term).
11. Gently rock the dish a few times to mix the dye with the media in the wells and incubate the dish at 37° C. for 10 min (too long incubation can make the green signal too intense).
12. Wash each well with 0.5 mL of sterile PBS and then add 0.5 mL of phenol red free SFM to each well. Alternatively 0.5 mL of regular Endothelial Cell Growth Media can be added to each well if this well needs to be continuously maintained after the experiment.
13. Look through all wells on an inverted microscope using the 2× objective lens to observe morphological changes.
14. Taking pictures in the red and green channels would allow not only the recording of the result but also more accurate quantitation of the result. To take pictures for all the wells, first pick a well that has robust red and green signals. […]

[2] = system: tumor endothelial cells (LL/2 lung cancer tumor); experiment: Lung LL2 ex vivo model of tumor angiogenesis; assay type: cell-based, mouse; details: for cytotoxicity at 20 µM / cytotoxicity at 40 µM: Mus musculus, Endothelial cell, 48 h, read-out: Cell death; for Cell death: drug treatment two days
How it was run: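 Read-out is live/dead fluorescence imaging (fluorescein diacetate green, propidium iodide red, 10 min at 37° C) at 2×, taken e.g. 48 h after drug addition. Fragments of mouse LL2 tumor are cultured in Matrigel with endothelial growth medium, usually 4 days, until new endothelial cells grow out, then treated.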

SMILES	cytotoxicity at 10 µM [1]	cytotoxicity at 20 µM [2]	cytotoxicity at 40 µM [1]	cytotoxicity at 40 µM [2]	also measured
CCCCCCCOc1ccc(S(=O)(=O)c2cnc3ccc([S+](C)[O-])cc3c2N2CCCN(CCN3CCCCC3)CC2)cc1 (centres unmarked) [compound 255, 3-((4-(heptyloxy)phenyl)sulfonyl)-6-(methylsulfinyl)-4-(4-(2-(piperidin-1-yl)ethyl)-1,4-diazepan-1-yl)quinoline]	0%	10%			
CCCCCCCOc1ccc(S(=O)(=O)c2cnc3ccc([S+](C)[O-])cc3c2N2CCC(N3CCCN(C)CC3)CC2)cc1 (centres unmarked) [compound 256, 3-((4-(heptyloxy)phenyl)sulfonyl)-4-(4-(4-methyl-1,4-diazepan-1-yl)piperidin-1-yl)-6-(methylsulfinyl)quinoline]	90%	100%			
CCCCOc1ccc(S(=O)(=O)c2cnc3ccc(C(=O)OCC)cc3c2N2CCC(N3CCCN(C)CC3)CC2)cc1 [compound 211, ethyl 3-((4-butoxyphenyl)sulfonyl)-4-(4-(4-methyl-1,4-diazepan-1-yl)piperidin-1-yl)quinoline-6-carboxylate]			100%	100%	
CCCCOc1ccc(S(=O)(=O)c2cnc3ccc(SC)cc3c2N2CCCN(CCN3CCCCC3)CC2)cc1 [compound 206, 3-((4-butoxyphenyl)sulfonyl)-6-(methylthio)-4-(4-(2-(piperidin-1-yl)ethyl)-1,4-diazepan-1-yl)quinoline]		30%	100%		
CCCCCCCOc1ccc(S(=O)(=O)c2cnc3ccc([S+](C)[O-])cc3c2N2CCC(N3CCC(N4CCCCC4)CC3)CC2)cc1 (centres unmarked) [compound 258, 4-([1,4′:1′,4″-terpiperidin]-1″-yl)-3-((4-(heptyloxy)phenyl)sulfonyl)-6-(methylsulfinyl)quinoline]	100%	100%			
CCc1ccc(S(=O)(=O)c2cnc3ccc([N+](=O)[O-])cc3c2N2CCCN(C)CC2)cc1 [compound 76, 3-((4-ethylphenyl)sulfonyl)-4-(4-methyl-1,4-diazepan-1-yl)-6-nitroquinoline]			100%	20%	
COc1ccc(S(=O)(=O)c2cnc3ccc(OC(F)(F)F)cc3c2N2CCC(N3CCCCC3)CC2)cc1 [compound 43, 4-([1,4′-bipiperidin]-1′-yl)-3-((4-methoxyphenyl)sulfonyl)-6-(trifluoromethoxy)quinoline]			90%	100%	
CCCCOc1ccc(S(=O)(=O)c2cnc3ccc(OC(F)(F)F)cc3c2NN2CCN(C)CC2)cc1 [compound 92, 3-((4-butoxyphenyl)sulfonyl)-N-(4-methylpiperazin-1-yl)-6-(trifluoromethoxy)quinolin-4-amine]		10%	0%		
CN1CCN(Nc2c(S(=O)(=O)c3ccc(OC(F)(F)F)cc3)cnc3ccc(OC(F)(F)F)cc23)CC1 [compound 90, N-(4-methylpiperazin-1-yl)-6-(trifluoromethoxy)-3-((4-(trifluoromethoxy)phenyl)sulfonyl)quinolin-4-amine]			0%		Cell death ([2]; Lung LL2 ex vivo, Conc. 40 μm): 10%
COc1ccc(S(=O)(=O)c2cnc3ccc(OC(F)(F)F)cc3c2-n2cncn2)cc1OC [compound 89, 3-((3,4-dimethoxyphenyl)sulfonyl)-4-(1H-1,2,4-triazol-1-yl)-6-(trifluoromethoxy)quinoline]	100%	100%			
CCCCOc1ccc(S(=O)(=O)c2cnc3ccc(C(=O)NC(C)C)cc3c2N2CCCN(C)CC2)cc1 [compound 192, 3-((4-butoxyphenyl)sulfonyl)-N-isopropyl-4-(4-methyl-1,4-diazepan-1-yl)quinoline-6-carboxamide]			10%	60%	
COc1ccc(S(=O)(=O)c2cnc3ccc(OC(F)(F)F)cc3c2NCCO)cc1OC [compound 69, 2-((3-((3,4-dimethoxyphenyl)sulfonyl)-6-(trifluoromethoxy)quinolin-4-yl)amino)ethan-1-ol]			0%		48 hrs (morphology observations after 48 hours) ([2]; Lung LL2 ex vivo, Conc. 40 μm, 48 hrs): 0; Cell death ([2]; Lung LL2 ex vivo, Conc. 40 μm): 20%
O=S(=O)(c1ccc(OC(F)(F)F)cc1)c1cnc2ccc(OC(F)(F)F)cc2c1-n1cncn1 [compound 91, 4-(1H-1,2,4-triazol-1-yl)-6-(trifluoromethoxy)-3-((4-(trifluoromethoxy)phenyl)sulfonyl)quinoline]	100%				Cell death ([2]; Lung LL2 ex vivo, Conc. 20 μm): 80%
COc1ccc(S(=O)(=O)c2cnc3cc(OC)c(OC)cc3c2-n2cncn2)cc1OC [compound 96, 3-((3,4-dimethoxyphenyl)sulfonyl)-6,7-dimethoxy-4-(1H-1,2,4-triazol-1-yl)quinoline]	0%	0%			
CCc1ccc(S(=O)(=O)c2cnc3ccc(OC)cc3c2-n2cncn2)cc1 [compound 79, 3-((4-ethylphenyl)sulfonyl)-6-methoxy-4-(1H-1,2,4-triazol-1-yl)quinoline]	100%	20%			
COc1ccc(S(=O)(=O)c2cnc3ccc(OC(F)(F)F)cc3c2-n2cncn2)cc1 [compound 86, 3-((4-methoxyphenyl)sulfonyl)-4-(1H-1,2,4-triazol-1-yl)-6-(trifluoromethoxy)quinoline]	100%	100%			
N#Cc1ccc(S(=O)(=O)c2cnc3ccc(OC(F)(F)F)cc3c2N2CCC(N3CCCCC3)CC2)cc1 [compound 54, 4-((4-([1,4′-bipiperidin]-1′-yl)-6-(trifluoromethoxy)quinolin-3-yl)sulfonyl)benzonitrile]			10%	50%	
CCCCCCCOc1ccc(S(=O)(=O)c2cnc3ccc([S+](C)[O-])cc3c2N2CCN(C)CC2)cc1 (centres unmarked) [compound 259, 3-((4-(heptyloxy)phenyl)sulfonyl)-4-(4-methylpiperazin-1-yl)-6-(methylsulfinyl)quinoline]		95%			cytotoxicity at 20 µM [1]: 100%
COc1ccc(S(=O)(=O)c2cnc3ccc(OC(F)(F)F)cc3c2N2CCCN(C)CC2)cc1OC [compound 57, 3-((3,4-dimethoxyphenyl)sulfonyl)-4-(4-methyl-1,4-diazepan-1-yl)-6-(trifluoromethoxy)quinoline]			60%	40%	
CCc1ccc(S(=O)(=O)c2cnc3ccc(C(=O)O)cc3c2N2CCC(N3CCCCC3)CC2)cc1 [compound 67, 4-([1,4′-bipiperidin]-1′-yl)-3-((4-ethylphenyl)sulfonyl)quinoline-6-carboxylic acid]			0%	10%	
CCCCN(CCCC)c1c(S(=O)(=O)c2ccc(OC)c(OC)c2)cnc2ccc(OC(F)(F)F)cc12 [compound 74, N,N-dibutyl-3-((3,4-dimethoxyphenyl)sulfonyl)-6-(trifluoromethoxy)quinolin-4-amine]			100%	60%	
CCOC(=O)c1ccc2ncc(S(=O)(=O)c3ccc(CC)cc3)c(NN3CCN(C)CC3)c2c1 [compound 84, ethyl 3-((4-ethylphenyl)sulfonyl)-4-((4-methylpiperazin-1-yl)amino)quinoline-6-carboxylate]			100%	100%	
CCCCOc1ccc(S(=O)(=O)c2cnc3ccc(C(=O)OCC)cc3c2N2CCSCC2)cc1 [compound 191, ethyl 3-((4-butoxyphenyl)sulfonyl)-4-thiomorpholinoquinoline-6-carboxylate]			10%	30%	
